Source: patent EP0745595A1, “3-(3-Aryloxyphenyl)-1-(substituted methyl)-s-triazine-2,4,6-oxo or thiotrione herbicidal agents” (American Cyanamid Company, priority 1995, dated 1996)

What was measured:
Type in all cases: in vivo
[1] = tested on: […], PRESL.; experiment: Preemergence weed control under flooded paddy conditions, MOOVA (Monochoria); settings: for Herbicidal effect rating, MOOVA: preemergence, 3-4 weeks after treatment; for MOOVA: pre-weed
Summary of the method: (§1)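 Visual 0-9 score (stand, vigor, malformation, size, chlorosis, appearance vs untreated control) taken 3-4 wk after treatment. Test compounds were added into flood water (1.5-3 cm over silt loam) as 50/50 v/v aqueous/acetone, equivalent to about 0.5-0.063 kg/ha a.i.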

[2] = tested on: CYPERUS SEROTINUS, ROTTB.; experiment: Preemergence weed control under flooded paddy conditions, CYPSE (Flatsedge); settings: for Herbicidal effect rating, CYPSE: preemergence, 3-4 weeks after treatment; for CYPSE: pre-weed
Summary of the method: as §1

[3] = tested on: ECHINOCHLOA ORYZOIDES (ARD.)FRITSCH; experiment: Preemergence weed control under flooded paddy conditions, ECHORC (Watergrass (Calif.)); settings: for Herbicidal effect rating, ECHORC: preemergence, 3-4 weeks after treatment; for ECHORC: pre-weed
Summary of the method: as §1

[4] = tested on: SETARIA VIRIDIS, (L) BEAU; experiment: Postemergence herbicidal evaluation, SETVI (Foxtail, Green); parameters: key to SETVI rating / Herbicidal effect rating, SETVI / SETVI: 0-9 visual rating scale vs untreated control
Summary of the method: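 Ratings (0-9) reflect visual stand, vigor, malformation, size and chlorosis compared with untreated plants, assessed 4-5 weeks after postemergence spraying. Treatment was applied to roughly two-week-old seedlings at about 0.125-0.500 kg/ha in acetone/water with 0.5% Tween 20; replicate tests were averaged.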

[5] = tested on: GLYCINE MAX(L) MERR. CV. WILLIAMS; experiment: Preemergence herbicidal evaluation, GLXMAW (Soybean, Williams); settings: for GLXMAW herbicidal rating: rated four to five weeks after treatment
Summary of the method: (§2)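 Preemergence, greenhouse: seed + potting soil sown on ~1 inch soil in cups; aqueous acetone spray, ~0.125–0.50 kg/ha equivalent; rated 0-9 vs control at 4–5 wk.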

[6] = tested on: CASSIA OBTUSIFOLIA, L.; experiment: Preemergence herbicidal evaluation, CASOB (Sicklepod); settings: for CASOB herbicidal rating: rated four to five weeks after treatment
Summary of the method: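 Preemergence herbicidal activity against sicklepod was assessed by planting seed mixed with potting soil atop about one inch of soil in pint cups. After treatment the cups were watered and handled per standard greenhouse practice. Tests ended four to five weeks later, with plant stand, vigor, malformation, size, chlorosis and overall appearance scored 0-9 relative to a control.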

[7] = tested on: CYPERUS IRIA; experiment: Preemergence weed control under flooded paddy conditions, CYPIR (Rice Flatsedge); settings: for Herbicidal effect rating, CYPIR: preemergence, 3-4 weeks after treatment; for CYPIR: pre-weed
Summary of the method: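 This preemergence test mimicked flooded paddy conditions: rice flatsedge propagules were sown in the upper 0.5 cm of silt loam in undrained 32 oz. containers (10.5 cm diameter), with water held 1.5 to 3 cm over the soil. After normal greenhouse care, plants were scored 0-9 for stand, vigor, malformation, size, chlorosis and appearance relative to controls.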

[8] = tested on: ZEA MAYS L.; experiment: Preemergence herbicidal evaluation, ZEAMX (Corn, Field); settings: for ZEAMX herbicidal rating: rated four to five weeks after treatment
Summary of the method: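 Preemergence herbicidal activity on field corn: seeds in potting soil were sown atop roughly one inch of soil in separate pint cups, treated, and grown under standard greenhouse care. Four to five weeks post-treatment, stand, vigor, malformation, size, chlorosis and overall appearance were compared with a control and scored 0-9.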

[9] = tested on: GALIUM APARINE; experiment: Preemergence herbicidal evaluation, GALAP (Galium); settings: for GALAP herbicidal rating: rated four to five weeks after treatment
Summary of the method: as §2

[10] = tested on: SAGITTARIA PYGMAEA, L.; experiment: Preemergence weed control under flooded paddy conditions, SAGPY (Arrowhead (Pygmaea)); settings: for Herbicidal effect rating, SAGPY: preemergence, 3-4 weeks after treatment; for SAGPY: pre-weed
Summary of the method: as §1

[11] = tested on: ORYZA SATIVA, L. TEBONNET; experiment: Postemergence herbicidal evaluation, ORYSAT (Rice, Tebonnet); parameters: key: 0-9 visual rating scale vs untreated control
Summary of the method: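 This postemergence greenhouse test used Oryza sativa cv. Tebonnet seedlings grown about two weeks in jiffy flats. Test material in 50/50 acetone/water with 0.5% TWEEN®20 surfactant was applied through a spray nozzle at 40 psi. Four to five weeks later, stand, vigor, malformation, size, chlorosis and overall appearance were rated 0-9 relative to a control, and repeat tests were averaged.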

[12] = tested on: GLYCINE MAX(L) MERR. CV. WILLIAMS; experiment: Postemergence herbicidal evaluation, GLXMAW (Soybean, Williams); parameters: key to GLXMAW rating / Herbicidal effect rating, GLXMAW / GLXMAW: 0-9 visual rating scale vs untreated control
Summary of the method: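 Herbicidal injury to Williams soybean was assessed after a postemergence spray of two-week-old seedlings grown in jiffy flats. Compounds were dispersed in an acetone/water (50/50) mixture with 0.5% TWEEN®20 surfactant and applied at 40 psi. After four to five weeks in the greenhouse, stand, vigor, malformation, size and chlorosis were compared against a control on a 0-9 scale, and results from replicate tests were averaged.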

`COC(=O)Cn1c(=O)n(C)c(=O)n(-c2cc(Oc3cc(Cl)cc(Cl)c3)ccc2[N+](=O)[O-])c1=O` [Compound 35, Methyl 3-[5-(3,5-dichlorophenoxy)-2-nitrophenyl]tetrahydro-5-methyl-2,4,6-trioxo-s-triazine-1(2H)-acetate] was tested, and the “Herbicidal effect rating, MOOVA” value ([1]; 0.500 kg/ha) was 0.0, the “Herbicidal effect rating, CYPSE” value ([2]; 0.500 kg/ha) was 0.0 and the “Herbicidal effect rating, ECHORC” value ([3]; 0.500 kg/ha) was 0.0. For the same molecule, the SETVI rating ([4]; Rate 0.125 kg/ha) was 0.0, the SETVI rating ([4]; Rate 0.250 kg/ha) was 0.0 and the SETVI rating ([4]; Rate 0.500 kg/ha) was 0.0. The GLXMAW herbicidal rating ([5]; Rate 0.500 kg/ha) was 1.0, the CASOB herbicidal rating ([6]; Rate 0.500 kg/ha) was 0.0 and the “Herbicidal effect rating, CYPIR” value ([7]; 0.500 kg/ha) was 0.0. The ZEAMX herbicidal rating ([8]; Rate 0.500 kg/ha) was 0.0, the GALAP herbicidal rating ([9]; Rate 0.500 kg/ha) was 0.0 and the “Herbicidal effect rating, SAGPY” value ([10]; 0.500 kg/ha) was 0.0.
With `COC(=O)Cn1c(=O)n(C)c(=O)n(-c2cc(Oc3ccccn3)ccc2[N+](=O)[O-])c1=O` [Compound 38, Methyl tetrahydro-3-methyl-5-[2-nitro-5-(2-pyridyloxy)phenyl]-2,4,6-trioxo-s-triazine-1(2H)-acetate] the ORYSAT rating ([11]; Rate 0.500 kg/ha) was 0.0, the “Herbicidal effect rating, MOOVA” value ([1]; 0.500 kg/ha) was 0.0 and the “Herbicidal effect rating, CYPSE” value ([2]; 0.500 kg/ha) was 0.0. For the same molecule, the “Herbicidal effect rating, ECHORC” value ([3]; 0.500 kg/ha) was 0.0, the SETVI rating ([4]; Rate 0.500 kg/ha) was 0.0 and the GLXMAW herbicidal rating ([5]; Rate 0.500 kg/ha) was 1.0. The CASOB herbicidal rating ([6]; Rate 0.500 kg/ha) was 0.0, the “Herbicidal effect rating, CYPIR” value ([7]; 0.500 kg/ha) was 0.0 and the ZEAMX herbicidal rating ([8]; Rate 0.500 kg/ha) was 2.0. For the same molecule, the GLXMAW rating ([12]; Rate 0.500 kg/ha) was 0.5, the GALAP herbicidal rating ([9]; Rate 0.500 kg/ha) was 0.0 and the “Herbicidal effect rating, SAGPY” value ([10]; 0.500 kg/ha) was 0.0.
In the case of “Methyl 3-{2-[(2-chloro-α,α,α,-trifluoro-p-tolyl)oxy]phenyl}tetrahydro-5-methyl-2,4,6-trioxo-s-triazine-1(2H)-acetate [Compound 28]”, the ORYSAT ([11]; Rate 0.063 kg/ha) was 1.5, the ORYSAT ([11]; Rate 0.125 kg/ha) was 2.0 and the ORYSAT rating ([11]; Rate 0.125 kg/ha) was 2.0. For the same molecule, the ORYSAT ([11]; Rate 0.250 kg/ha) was 2.5, the ORYSAT rating ([11]; Rate 0.250 kg/ha) was 2.5 and the ORYSAT ([11]; Rate 0.500 kg/ha) was 3.0. The ORYSAT rating ([11]; Rate 0.500 kg/ha) was 3.0, the “Herbicidal effect rating, MOOVA” value ([1]; 0.063 kg/ha) was 0.0 and the “Herbicidal effect rating, MOOVA” value ([1]; 0.125 kg/ha) was 0.0. The “Herbicidal effect rating, MOOVA” value ([1]; 0.250 kg/ha) was 2.0, the “Herbicidal effect rating, MOOVA” value ([1]; 0.500 kg/ha) was 9.0 and the MOOVA ([1]; Rate 0.250 kg/ha) was 2.0. The MOOVA ([1]; Rate 0.500 kg/ha) was 9.0, the MOOVA ([1]; Rate 1.000 kg/ha) was 9.0 and the “Herbicidal effect rating, CYPSE” value ([2]; 0.063 kg/ha) was 0.0. For the same molecule, the “Herbicidal effect rating, CYPSE” value ([2]; 0.125 kg/ha) was 0.0, the “Herbicidal effect rating, CYPSE” value ([2]; 0.250 kg/ha) was 0.0 and the “Herbicidal effect rating, CYPSE” value ([2]; 0.500 kg/ha) was 0.0. The CYPSE ([2]; Rate 0.250 kg/ha) was 0.0, the CYPSE ([2]; Rate 0.500 kg/ha) was 0.0 and the CYPSE ([2]; Rate 1.000 kg/ha) was 0.0. For the same molecule, the “Herbicidal effect rating, ECHORC” value ([3]; 0.063 kg/ha) was 0.0, the “Herbicidal effect rating, ECHORC” value ([3]; 0.125 kg/ha) was 0.0 and the “Herbicidal effect rating, ECHORC” value ([3]; 0.250 kg/ha) was 2.0. The “Herbicidal effect rating, ECHORC” value ([3]; 0.500 kg/ha) was 8.0, the ECHORC ([3]; Rate 0.250 kg/ha) was 2.0 and the ECHORC ([3]; Rate 0.500 kg/ha) was 8.5. The ECHORC ([3]; Rate 1.000 kg/ha) was 7.0, the SETVI ([4]; Rate 0.063 kg/ha) was 1.0 and the SETVI ([4]; Rate 0.125 kg/ha) was 1.0. The SETVI rating ([4]; Rate 0.125 kg/ha) was 1.0, the SETVI ([4]; Rate 0.250 kg/ha) was 2.0 and the SETVI rating ([4]; Rate 0.250 kg/ha) was 2.0. For the same molecule, the SETVI ([4]; Rate 0.500 kg/ha) was 4.0, the SETVI rating ([4]; Rate 0.500 kg/ha) was 4.0 and the GLXMAW ([5]; Rate 0.125 kg/ha) was 0.0. It also gave a GLXMAW herbicidal rating ([5]; Rate 0.125 kg/ha) of 0.0, a GLXMAW ([5]; Rate 0.250 kg/ha) of 1.0 and a GLXMAW herbicidal rating ([5]; Rate 0.250 kg/ha) of 1.0. For the same molecule, the GLXMAW ([5]; Rate 1.000 kg/ha) was 0.0, the CASOB ([6]; Rate 0.125 kg/ha) was 0.0 and the CASOB herbicidal rating ([6]; Rate 0.125 kg/ha) was 0.0. The CASOB ([6]; Rate 0.250 kg/ha) was 2.0, the CASOB herbicidal rating ([6]; Rate 0.250 kg/ha) was 2.0 and the CASOB ([6]; Rate 0.500 kg/ha) was 1.5. The CASOB herbicidal rating ([6]; Rate 0.500 kg/ha) was 3.0, the CASOB ([6]; Rate 1.000 kg/ha) was 3.0 and the “Herbicidal effect rating, CYPIR” value ([7]; 0.063 kg/ha) was 0.0. For the same molecule, the “Herbicidal effect rating, CYPIR” value ([7]; 0.125 kg/ha) was 0.0, the “Herbicidal effect rating, CYPIR” value ([7]; 0.250 kg/ha) was 0.0 and the “Herbicidal effect rating, CYPIR” value ([7]; 0.500 kg/ha) was 4.0. For the same molecule, the CYPIR ([7]; Rate 0.250 kg/ha) was 0.0, the CYPIR ([7]; Rate 0.500 kg/ha) was 6.5 and the CYPIR ([7]; Rate 1.000 kg/ha) was 7.0. It also gave a ZEAMX ([8]; Rate 0.125 kg/ha) of 0.0, a ZEAMX herbicidal rating ([8]; Rate 0.125 kg/ha) of 0.0 and a ZEAMX ([8]; Rate 0.250 kg/ha) of 0.0. The ZEAMX herbicidal rating ([8]; Rate 0.250 kg/ha) was 0.0, the ZEAMX ([8]; Rate 0.500 kg/ha) was 1.0 and the ZEAMX herbicidal rating ([8]; Rate 0.500 kg/ha) was 1.0. The ZEAMX ([8]; Rate 1.000 kg/ha) was 1.0, the GLXMAW ([12]; Rate 0.063 kg/ha) was 2.5 and the GLXMAW ([12]; Rate 0.125 kg/ha) was 3.5. For the same molecule, the GLXMAW rating ([12]; Rate 0.125 kg/ha) was 3.5, the GLXMAW ([12]; Rate 0.250 kg/ha) was 4.5 and the GLXMAW rating ([12]; Rate 0.250 kg/ha) was 4.5. For the same molecule, the GLXMAW ([12]; Rate 0.500 kg/ha) was 5.0, the GLXMAW rating ([12]; Rate 0.500 kg/ha) was 5.0 and the GALAP ([9]; Rate 0.125 kg/ha) was 3.0. It also gave a GALAP herbicidal rating ([9]; Rate 0.125 kg/ha) of 3.0, a GALAP ([9]; Rate 0.250 kg/ha) of 4.0 and a GALAP herbicidal rating ([9]; Rate 0.250 kg/ha) of 4.0. For the same molecule, the GALAP ([9]; Rate 0.500 kg/ha) was 5.5, the GALAP herbicidal rating ([9]; Rate 0.500 kg/ha) was 6.0 and the GALAP ([9]; Rate 1.000 kg/ha) was 5.0. For the same molecule, the “Herbicidal effect rating, SAGPY” value ([10]; 0.063 kg/ha) was 0.0, the “Herbicidal effect rating, SAGPY” value ([10]; 0.125 kg/ha) was 0.0 and the “Herbicidal effect rating, SAGPY” value ([10]; 0.250 kg/ha) was 0.0. For the same molecule, the “Herbicidal effect rating, SAGPY” value ([10]; 0.500 kg/ha) was 0.0, the SAGPY ([10]; Rate 0.250 kg/ha) was 0.0 and the SAGPY ([10]; Rate 0.500 kg/ha) was 0.0. For the same molecule, the SAGPY ([10]; Rate 1.000 kg/ha) was 0.0.
